Experimental data published in patent publication US8802597B2, “Herbicidal pyrimidines” (E I du Pont de Nemours and Company, priority 2003, dated 2014).

Tests used:
Format in all cases: in vivo
[1] = tested on: lambsquarters (CHEAL, Chenopodium album L.); test: Test H mixtures of compound 1 with diflufenzopyr; conditions: foliage spray
Text: (§1) This test evaluated the effect of mixtures of compound 1 with diflufenzopyr on several plant species. Seeds of test plants consisting of large crabgrass (DIGSA, Digitaria sanguinalis (L.) Scop.), lambsquarters (CHEAL, Chenopodium album L.), redroot pigweed (AMARE, Amaranthus retroflexus L.), cocklebur (XANST, Xanthium strumarium L.), barnyardgrass (ECHCG; Echinochloa crus-galli (L.) Beauv.), corn (ZEAMD, Zea mays L. cv. ‘Pioneer 33G26’), scarlet (red) morningglory (IPOCO, Ipomoea coccinea L.), giant foxtail (SETFA, Setaria faberi Herrm.) and velvetleaf (ABUTH, Abutilon theophrasti Medik.) were planted in pots containing Redi-Earth® planting medium (Scotts Company, 14111 Scottslawn Road, Marysville, Ohio 43041) comprising spaghnum peat moss, vermiculite, wetting agent and starter nutrients. Seeds of small-seeded species were planted about 1 cm deep; larger seeds were planted about 2.5 cm deep. Plants were grown in a greenhouse using supplemental lighting to maintain a photoperiod of about 14 hours; daytime and nighttime temperatures were about 25-30° C. and 22-25° C., respectively. Balanced fertilizer was applied through the watering system. The plants were grown for 7 to 11 days so that at time of treatment the plants ranged in height from 2 to 18 cm (1- to 4-leaf stage). Treatments consisted of Compound 1 and diflufenzopyr alone and in combination, suspended or dissolved in an aqueous solvent comprising glycerin and Tween nonionic surfactant and applied as a foliage spray using a volume of 541 L/ha. Each treatment was replicated four times. […] Treated plants and controls were maintained in the greenhouse and watered as needed with care to not wet the foliage for the first 24 hours after treatment. The effects on the plants approximately 3 weeks after treatment were visually compared to untreated controls. Plant response ratings were calculated as the means of the four replicates, based on a scale of 0 to 100 where 0 is no effect and 100 is complete control. Colby's Equation was used to determine the herbicidal effects expected from the mixtures. Colby's Equation (Colby, S. R. “Calculating Synergistic and Antagonistic Responses of Herbicide Combinations,” Weeds, 15(1), pp 20-22 (1967)) calculates the expected additive effect of herbicidal mixtures, and for two active ingredients is of the form: Pa+b=Pa+Pb−(PaPb/100) wherein Pa+b is the percentage effect of the mixture expected from additive contribution of the individual components, • Pa is the observed percentage effect of the first active ingredient at the same use rate as in the mixture, and • Pb is the observed percentage effect of the second active ingredient at the same use rate as in the mixture.

[2] = tested on: cocklebur (XANST, Xanthium strumarium L.); test: Test H mixtures of compound 1 with diflufenzopyr; conditions: foliage spray
Text: as §1

[3] = tested on: velvetleaf (ABUTH, Abutilon theophrasti Medik.); test: Test H mixtures of compound 1 with diflufenzopyr; conditions: foliage spray
Text: as §1

[4] = tested on: scarlet (red) morningglory (IPOCO, Ipomoea coccinea L.); test: Test H mixtures of compound 1 with diflufenzopyr; conditions: foliage spray
Text: as §1

[5] = tested on: corn (ZEAMD, Zea mays L. cv. ‘Pioneer 33G26’); test: Test H mixtures of compound 1 with diflufenzopyr; conditions: foliage spray
Text: as §1

[6] = tested on: barnyardgrass (ECHCG; Echinochloa crus-galli (L.) Beauv.); test: Test H mixtures of compound 1 with diflufenzopyr; conditions: foliage spray
Text: as §1

[7] = tested on: redroot pigweed (AMARE, Amaranthus retroflexus L.); test: Test H mixtures of compound 1 with diflufenzopyr; conditions: foliage spray
Text: as §1

[8] = tested on: giant foxtail (SETFA, Setaria faberi Herrm.); test: Test H mixtures of compound 1 with diflufenzopyr; conditions: foliage spray
Text: as §1

[9] = tested on: large crabgrass (DIGSA, Digitaria sanguinalis (L.) Scop.); test: Test H mixtures of compound 1 with diflufenzopyr; conditions: foliage spray
Text: as §1

[10] = tested on: purple redstem (AMMCO; Ammannia coccinea); test: Test J mixtures of compound 58 with azimsulfuron, flooded paddy; conditions: 21 days, scale 0-100
Text: (§2) This test evaluated the effect of mixtures of compound 58 with azimsulfuron on several plant species. Three plastic pots (ca. 16-cm diameter) per rate were partially filled with sterilized Tama silt loam soil comprising a 35:50:15 ratio of sand, silt and clay and 2.6% organic matter. Separate plantings for each of the three pots were as follows. Seeds from the U.S. of ducksalad (HETLI; Heteranthera limosa), smallflower umbrella sedge (CYPDI; Cyperus difformis) and purple redstem (AMMCO; Ammannia coccinea), were planted into one 16-cm pot for each rate. Seeds from the U.S. of bearded sprangletop (LEFUF; Leptochloa fusca ssp. fascicularis), one stand of 9 or 10 water-seeded rice seedlings (ORYSW; Oryza sativa cv. ‘Japonica-M202’), and one stand of 6 transplanted rice seedlings (ORYSP; Oryza sativa cv. ‘Japonica-M202’) were planted into one 16-cm pot for each rate. Seeds from the U.S. of barnyardgrass (ECHCG; Echinochloa crus-galli), late watergrass (ECOR2; Echinochloa oryzicola), early watergrass (ECHOR; Echinochloa oryzoides) and junglerice (ECHCO; Echinochloa colona) were planted into one 16-cm pot for each rate. Plantings were sequential so that crop and weed species were at the 2.0 to 2.5-leaf stage at time of treatment.
(§3) Potted plants were grown in a greenhouse with day/night temperature settings of 29.5/26.7° C., and supplemental balanced lighting was provided to maintain a 16-hour photoperiod. Test pots were maintained in the greenhouse until test completion.
(§4) At time of treatment, test pots were flooded to 3 cm above the soil surface and then treated by application directly to the paddy water of test compounds formulated in a non-phytotoxic solvent mixture which included a surfactant. The pots were maintained at the 3-cm water depth for the duration of the test. Treatments consisted of compound 58 and azimsulfuron alone and in combination. Effects of treatments on rice and weeds were visually evaluated by comparison to untreated controls after 21 days. Plant response ratings were calculated as the means of the three replicates and are summarized in Table J. The ratings are based on a scale of 0 to 100 where 0 is no effect and 100 is complete control. A dash (-) response means no test result. Colby's Equation was used to determine the herbicidal effects expected from the mixtures.

[11] = tested on: early watergrass (ECHOR; Echinochloa oryzoides); test: as above; conditions: 21 days, scale 0-100
Text: as §2, §3, §4

[12] = tested on: smallflower umbrella sedge (CYPDI; Cyperus difformis); test: as above; conditions: 21 days, scale 0-100
Text: as §2, §3, §4

[13] = tested on: ducksalad (HETLI; Heteranthera limosa); test: as above; conditions: 21 days, scale 0-100
Text: as §2, §3, §4

[14] = tested on: bearded sprangletop (LEFUF; Leptochloa fusca ssp. fascicularis); test: as above; conditions: 21 days, scale 0-100
Text: as §2, §3, §4

[15] = tested on: late watergrass (ECOR2; Echinochloa oryzicola); test: as above; conditions: 21 days, scale 0-100
Text: as §2, §3, §4

[16] = tested on: junglerice (ECHCO; Echinochloa colona); test: as above; conditions: 21 days, scale 0-100
Text: as §2, §3, §4

[17] = tested on: water-seeded rice seedlings (ORYSW; Oryza sativa cv. ‘Japonica-M202’); test: as above; conditions: 21 days, scale 0-100
Text: as §2, §3, §4

[18] = tested on: barnyardgrass (ECHCG; Echinochloa crus-galli); test: as above; conditions: 21 days, scale 0-100
Text: as §2, §3, §4

[19] = tested on: transplanted rice seedlings (ORYSP; Oryza sativa cv. ‘Japonica-M202’); test: as above; conditions: 21 days, scale 0-100
Text: as §2, §3, §4

## C/C(=N\NC(=O)Nc1cc(F)cc(F)c1)c1ncccc1C(=O)O [Diflufenzopyr, diflufenzopyr, reference compound]
[1]; Diflufenzopyr 12 g a.i./ha
  Obsd. observed effect (0 to 100 scale): 61
[1]; Diflufenzopyr 25 g a.i./ha
  Obsd. observed effect (0 to 100 scale): 76
[1]; Diflufenzopyr 50 g a.i./ha
  Obsd. observed effect (0 to 100 scale): 80
[2]; Diflufenzopyr 12 g a.i./ha
  Obsd. observed effect (0 to 100 scale): 43
[2]; Diflufenzopyr 25 g a.i./ha
  Obsd. observed effect (0 to 100 scale): 60
[2]; Diflufenzopyr 50 g a.i./ha
  Obsd. observed effect (0 to 100 scale): 68
[3]; Diflufenzopyr 12 g a.i./ha
  Obsd. observed effect (0 to 100 scale): 50
[3]; Diflufenzopyr 25 g a.i./ha
  Obsd. observed effect (0 to 100 scale): 78
[3]; Diflufenzopyr 50 g a.i./ha
  Obsd. observed effect (0 to 100 scale): 68
[4]; Diflufenzopyr 12 g a.i./ha
  Obsd. observed effect (0 to 100 scale): 77
[4]; Diflufenzopyr 25 g a.i./ha
  Obsd. observed effect (0 to 100 scale): 83
[4]; Diflufenzopyr 50 g a.i./ha
  Obsd. observed effect (0 to 100 scale): 82
[5]; Diflufenzopyr 12 g a.i./ha
  Obsd. observed effect (0 to 100 scale): 0
[5]; Diflufenzopyr 25 g a.i./ha
  Obsd. observed effect (0 to 100 scale): 0
[5]; Diflufenzopyr 50 g a.i./ha
  Obsd. observed effect (0 to 100 scale): 0
[6]; Diflufenzopyr 12 g a.i./ha
  Obsd. observed effect (0 to 100 scale): 5
[6]; Diflufenzopyr 25 g a.i./ha
  Obsd. observed effect (0 to 100 scale): 10
[6]; Diflufenzopyr 50 g a.i./ha
  Obsd. observed effect (0 to 100 scale): 23
[7]; Diflufenzopyr 12 g a.i./ha
  Obsd. observed effect (0 to 100 scale): 73
[7]; Diflufenzopyr 25 g a.i./ha
  Obsd. observed effect (0 to 100 scale): 91
[7]; Diflufenzopyr 50 g a.i./ha
  Obsd. observed effect (0 to 100 scale): 95
[8]; Diflufenzopyr 12 g a.i./ha
  Obsd. observed effect (0 to 100 scale): 41
[8]; Diflufenzopyr 25 g a.i./ha
  Obsd. observed effect (0 to 100 scale): 58
[8]; Diflufenzopyr 50 g a.i./ha
  Obsd. observed effect (0 to 100 scale): 59
[9]; Diflufenzopyr 12 g a.i./ha
  Obsd. observed effect (0 to 100 scale): 0
[9]; Diflufenzopyr 25 g a.i./ha
  Obsd. observed effect (0 to 100 scale): 1
[9]; Diflufenzopyr 50 g a.i./ha
  Obsd. observed effect (0 to 100 scale): 8

## COc1cc(OC)nc(NC(=O)NS(=O)(=O)c2c(-c3nnn(C)n3)cnn2C)n1 [Azimsulfuron]
[10]; Azimsulfuron 2 g a.i./ha alone
  AMMCO Obsd.: 0
[10]; Azimsulfuron 4 g a.i./ha alone
  AMMCO Obsd.: 0
[10]; Azimsulfuron 8 g a.i./ha alone
  AMMCO Obsd.: 95
[11]; Azimsulfuron 2 g a.i./ha alone
  ECHOR Obsd.: 0
[11]; Azimsulfuron 4 g a.i./ha alone
  ECHOR Obsd.: 0
[11]; Azimsulfuron 8 g a.i./ha alone
  ECHOR Obsd.: 40
[12]; Azimsulfuron 2 g a.i./ha alone
  CYPDI Obsd.: 95
[12]; Azimsulfuron 4 g a.i./ha alone
  CYPDI Obsd.: 100
[12]; Azimsulfuron 8 g a.i./ha alone
  CYPDI Obsd.: 100
[13]; Azimsulfuron 2 g a.i./ha alone
  HETLI Obsd.: 30
[13]; Azimsulfuron 4 g a.i./ha alone
  HETLI Obsd.: 30
[13]; Azimsulfuron 8 g a.i./ha alone
  HETLI Obsd.: 100
[14]; Azimsulfuron 2 g a.i./ha alone
  LEFUF Obsd.: 0
[14]; Azimsulfuron 4 g a.i./ha alone
  LEFUF Obsd.: 0
[14]; Azimsulfuron 8 g a.i./ha alone
  LEFUF Obsd.: 0
[15]; Azimsulfuron 2 g a.i./ha alone
  ECOR2 Obsd.: 0
[15]; Azimsulfuron 4 g a.i./ha alone
  ECOR2 Obsd.: 0
[15]; Azimsulfuron 8 g a.i./ha alone
  ECOR2 Obsd.: 50
[16]; Azimsulfuron 2 g a.i./ha alone
  ECHCO Obsd.: 0
[16]; Azimsulfuron 4 g a.i./ha alone
  ECHCO Obsd.: 0
[16]; Azimsulfuron 8 g a.i./ha alone
  ECHCO Obsd.: 40
[17]; Azimsulfuron 2 g a.i./ha alone
  ORYSW Obsd.: 0
[17]; Azimsulfuron 4 g a.i./ha alone
  ORYSW Obsd.: 0
[17]; Azimsulfuron 8 g a.i./ha alone
  ORYSW Obsd.: 10
[18]; Azimsulfuron 2 g a.i./ha alone
  ECHCG Obsd.: 0
[18]; Azimsulfuron 4 g a.i./ha alone
  ECHCG Obsd.: 0
[18]; Azimsulfuron 8 g a.i./ha alone
  ECHCG Obsd.: 30
[19]; Azimsulfuron 2 g a.i./ha alone
  ORYSP Obsd.: 0
[19]; Azimsulfuron 4 g a.i./ha alone
  ORYSP Obsd.: 0
[19]; Azimsulfuron 8 g a.i./ha alone
  ORYSP Obsd.: 0
